# Assay results as given in patent US20170095512A1, “METHODS OF INDUCING MYELINATION AND MATURATION OF OLIGODENDROCYTES” (KADIMASTEM LTD., priority 2014, published 2017).
# Entries after “also recorded” stand apart in the source; their conditions may differ.
# What was measured:
# [1] = tested on: glial progenitor cells derived from human ES cells (Olig2 positive cells); assay: hOPC differentiation assay, Olig2 positive cells (immunostaining, high content screening); type: cell-based
# Procedure: In order to initiate differentiation 20,000 GPCs were seeded in each well of Matrigel coated plates of 96 wells, or on PolyD-Lysine/laminin (PDL/lam)-coated 96 well plates. Cells were grown in GM media for two to three days. Then GM was replaced by differentiation medium without growth factors, (DMEM/F12, 1% B27, 0.5% N2, Vitamin C (Sigma, 50 ug/ml). Differentiation medium was supplemented with the following tested compounds: […] All media were replaced every other day. The oligodendrocyte lineage cells were characterized by the expression of a transcription factor olig2. The rabbit polyclonal AB anti olig2 (Millipore cat AB9610) was added to PFA fixed cells. […] The fixed cells were washed three times in blocking solution, olig2 diluted 1/500, in blocking solution, was added for 1 hour. The fixed cells were washed with PBS 3 times and goat anti rabbit Alexa Fluor 568 1/500 in PBS was added for 45 minutes. The fixed cells were washed three times. ArrayScan VTI HCS reader system (Cellomis, Thermo-scientific) was used for scanning at least 20 fields for each tested well under 10× objective in both assays (differentiation and myelination). Cellomics Neural profiling bio-application was used for processing and analyzing the images. For differentiation assay, the following parameters were tested: number and percentage of O4+ cells, number of processes, processes length and number of branching points. For myelination assay, the same morphological parameters were tested and in addition: areas of myelinated axons in pixels (MBP&NF overlap area) and Number of myelinated regions (MBP&NF overlap count) were also analyzed. Modifications in the Neuro-profiling bio-application were conducted for this specific purpose. T-test analysis was used to compare between treatments. The 4-parameter Hill-Slope curve fittings were generated by GraphPad Prism software using least squares fitting method and EC50 values were calculated. […] The cells at passage five were cultured for three days with GM on 96 well plates and after fixation, cells were reacted with anti-olig2 Ab, and olig2 positive cells and nuclei were scanned in the Thermo Scientific™ ArrayScan™ XTI High Content Analysis (HCA) Reader and counted with the neural profiling program. On the other hand the cells surface antigens O4 and PDGFRa were detected on dissociated cells after fixation and reaction with O4 Ab conjugated to APC, anti PDGFRa PE, as well as A2B5 PE all obtained from BD. Flow cytometry was conducted in BD FACS Canto II. […] Time points used for analysis are 21, 28, 35 and 42 days of differentiation, for each time point 20 fields were analyzed. […] In this experiment, cells at passage 4 were pretreated in differentiation medium with Noggin for 14 days, and split before seeding on 96 well plates.
# [2] = tested on: human OPC derived from ES cells (O4+ cells); assay: hOPC differentiation assay, O4+ cells (immunostaining, high content screening); type: cell-based
# Procedure: In order to initiate differentiation 20,000 GPCs were seeded in each well of Matrigel coated plates of 96 wells, or on PolyD-Lysine/laminin (PDL/lam)-coated 96 well plates. Cells were grown in GM media for two to three days. Then GM was replaced by differentiation medium without growth factors, (DMEM/F12, 1% B27, 0.5% N2, Vitamin C (Sigma, 50 ug/ml). Differentiation medium was supplemented with the following tested compounds: […] All media were replaced every other day. Oligodendrocytes were characterized by the presence of the antigen detected by the monoclonal antibody O4 (IgM (R&D). Living cells reacted with O4 antibody diluted 1/200 in medium without growth factors (50 ul/well) and left for 40 minutes in the incubator at 37° C., washed once with GM, fixed with PFA 4% (170 ul per well) for 20 minutes at room temperature, washed 3 times with PBS. Dapi diluted to 0.5 ug/ml was introduced in the second wash for 10 min Afterwards the preparation was blocked with 5% normal goat serum in PBS-- for 20 min, washed and reacted with goat anti mouse IgM Ab-FITC conjugated (Millipore cat A[…]) diluted 1/500, for 45 minutes at room temperature, and washed three times with PBS--. ArrayScan VTI HCS reader system (Cellomis, Thermo-scientific) was used for scanning at least 20 fields for each tested well under 10× objective in both assays (differentiation and myelination). Cellomics Neural profiling bio-application was used for processing and analyzing the images. For differentiation assay, the following parameters were tested: number and percentage of O4+ cells, number of processes, processes length and number of branching points. For myelination assay, the same morphological parameters were tested and in addition: areas of myelinated axons in pixels (MBP&NF overlap area) and Number of myelinated regions (MBP&NF overlap count) were also analyzed. Modifications in the Neuro-profiling bio-application were conducted for this specific purpose. T-test analysis was used to compare between treatments. The 4-parameter Hill-Slope curve fittings were generated by GraphPad Prism software using least squares fitting method and EC50 values were calculated.
# [3] = day 21, Noggin 50 ng/ml + PDGF 20 ng/ml, Dorsomorphin 2 μM, LDN-193189 125 nM
structure (smiles),measurement,setting,value
c1ccc2c(-c3cnn4cc(-c5ccc(N6CCNCC6)cc5)cnc34)ccnc2c1 [LDN-193189],Olig2+ cells number / differentiation (summary statement),[1],increased the number of O4+ and Olig2+ cells; also recorded: stimulates the formation of olig2 positive cells
same,EC50,"[1]; 21 days, differentiation medium without noggin, with or without PDGF (20 ng/ml), read-out: EC50 (percentage of olig2 positive cells)",~30 nM
same,number / percentage of Olig2+ cells (hOPC commitment),[1]; [3],increased the number of Olig2+
same,conversion of neural stem cells to Olig2 positive cells,"[1]; days 21, 28, 35, 42, noggin 100 ng/ml, LDN-193189 62.5 nM and 125 nM",stimulate the conversion of neural stem cells to Olig2 positive cells
same,O4+ cells number / conversion of Olig2+ cells into O4+ cells (summary statement),[2],increased the number of O4+ and Olig2+ cells; also recorded: stimulates
same,number of O4+ cells,[2]; [3],increase in the number of O4+ cells
same,number of processes per cell,[2]; dose dependent manner,increased
same,total length of processes,[2]; dose dependent manner,increased
